This is an account of results in patent US20120295920A1, “5-AMINO-4-HYDROXYPENTOYL AMIDES” (priority 2009, published 2012).

Like-named read-outs stand apart in the source and are kept apart here. Where only a bound is given, the exact number is not on record here.

For one data set, the system named is HIV-1 wild-type strain. As to the kind of experiment: General antiviral assay, cell-based virus replication in MT4-LTR-EGFP cells, wild-type strain. The following applies: Human immunodeficiency virus 1; wild-type strain IIIB, MT4-LTR-EGFP cells. In short, it runs like this:
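HIV LTR-driven EGFP reporter MT4 cells (150,000 cells/ml) infected at MOI 0.0025 with or without inhibitor at various concentrations. Read-out either GFP fluorescence on day 3 post-infection or resazurin cell viability on day 4.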

For data set [1], the system named is HIV-1 Strain A (M046I, I084V). As to the kind of experiment: microbe, parasite or virus in culture. Format: cell-based. The following applies: Human immunodeficiency virus 1, read-out: A EC50. In short, it runs like this: (§1)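 MT4 cells stably carrying an HIV LTR-driven EGFP reporter (150,000 cells/ml) were infected at MOI 0.0025 with or without inhibitor dilutions. Replication was read either as GFP fluorescence on day 3 post-infection or as cell viability by resazurin on day 4.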

Data set [2] relates to HIV-1 Strain B (M046I, I050V). As to the kind of experiment: microbe, parasite or virus in culture. In kind it is cell-based. The conditions noted are these: Human immunodeficiency virus 1, read-out: B EC50. In short, it runs like this: as §1
Data set [3] concerns HIV-1 Strain C (G048G/V, V082A). Description: microbe, parasite or virus in culture. Format: cell-based. The conditions noted are these: Human immunodeficiency virus 1, read-out: C EC50. In short, it runs like this: as §1
Data set [4] in a line: General toxicity assay on mock-infected MT4 cells with CMV-EGFP reporter (CC50). In kind it is cell-based. The conditions noted are these: human.
The next data set has as its system HIV-1 IIIB. Description: 50% HS-Rezazurin: antiviral assay in the presence of 50% human serum, MT-4 cells, resazurin cell viability. In kind it is cell-based. The following applies: Human immunodeficiency virus 1, IIIB, MT4, 96 h. In short, it runs like this: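 MT-4 cells infected with HIV-1 IIIB (MOI 0.001 to 0.01 CCID50/cell) for 1 h, washed, then plated onto serial compound dilutions in 50% human serum (10% FCS alternative). After 4 days, EC50 derived from resazurin cell viability.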

[5] abbreviates: mock-infected MT4 cells with CMV-EGFP reporter, read-out: TOX-MT4CMV (CC50).
Where [6] appears, read: MT4LTR cells, read-out: TOX-MT4LTR (CC50).

A word on the EC50: it is the concentration giving half of the maximal effect. A word on the CC50: it is the concentration that lowers cell viability or growth by half. Turning to `COC(=O)N[C@H](C(=O)N[C@@H](Cc1ccc(-c2cc(C)nc(C)c2)cc1)[C@@H](O)C[C@@H](Cc1cccc(Cl)c1)C(=O)N[C@H]1c2ccccc2OC[C@H]1O)C(C)(C)C` [Compound 4], the EC50 in the data set on HIV-1 wild-type strain stood at 5.6 nM; in data set [1] it was 3.9 nM; in data set [2], 3.9 nM; in data set [3], 2.7 nM; with HIV-1 IIIB it was 31.2 nM. In addition, the CC50 in data set [4] (setting [5]) was > 32000 nM.

As to `CNC(=O)[C@@H](NC(=O)[C@H](Cc1ccccc1F)C[C@H](O)[C@H](Cc1ccc(-c2ccc(N(C)C)nc2)cc1)NC(=O)[C@@H](NC(=O)OC)C(C)(C)C)C(C)(C)C` [Compound 90], the EC50 in the data set with HIV-1 wild-type strain was 4.7 nM; in data set [1], 4.8 nM; in data set [2], 2.6 nM; in data set [3], 2.8 nM; in the data set on HIV-1 IIIB it was 13.6 nM. Moreover, the CC50 in data set [4] (setting [5]) was > 32000 nM.

For the compound `COC(=O)N[C@H](C(=O)N[C@@H](Cc1ccc(-c2cnc(C(C)C)s2)cc1)[C@@H](O)C[C@@H](Cc1ccccc1F)C(=O)N[C@H]1c2cc(Cl)ccc2OC[C@H]1O)C(C)(C)C` [Compound 32], the EC50 worked out at 5.9 nM with HIV-1 wild-type strain; 5 nM in data set [1]; 3.7 nM in data set [2]; 3.1 nM in data set [3]; 28.6 nM in the data set with HIV-1 IIIB. Moreover, in data set [4] (setting [5]), the CC50 came to 2200 nM.

For `COC(=O)N[C@H](C(=O)N[C@@H](Cc1ccc(-c2ccc(OC)nc2)cc1)[C@@H](O)C[C@@H](Cc1cccc(OC(F)(F)F)c1)C(=O)N[C@H]1c2cc(F)ccc2OC[C@H]1O)C(C)(C)C` [Compound 64], the 50% effective concentration (EC50) was determined as 2.6 nM in the data set with HIV-1 wild-type strain; 3 nM in data set [1]; 1.6 nM in data set [2]; 1.3 nM in data set [3]; 15.1 nM in the data set on HIV-1 IIIB. Also, the CC50 in data set [4] (setting [6]) was > 32000 nM.

As usually defined, the melting point is the temperature of the solid-liquid transition. As for `COC(=O)N[C@H](C(=O)N[C@@H](Cc1ccc(-c2ccc(N(C)C)nc2)cc1)[C@@H](O)C[C@@H](Cc1ccccc1F)C(=O)N[C@H]1c2cc(F)cc(Cl)c2OC[C@H]1O)C(C)(C)C` [Compound 52], the melting point is 255.44 °C. The EC50 with HIV-1 wild-type strain stood at 1.8 nM. Further, in data set [1], the EC50 worked out at 1.2 nM. Moreover, the EC50 in data set [2] came to 0.9 nM. Besides, the EC50 in data set [3] was 0.7 nM. Moreover, the 50% cytotoxic concentration (CC50) in data set [4] (setting [6]) is > 32000 nM. For the same compound, in the data set on HIV-1 IIIB, the concentration for a half-maximal effect (EC50) is 6.2 nM.
